Reference: patent US20100286076A1, “ECTOPARASITICIDAL METHODS AND FORMULATIONS” (priority 2009, published 2010)
Read-outs that look alike come from different tables or passages of the source.

Assays:
[1] = system: adult cat flea, Ctenocephalides felis; conditions: dogs, historical data, not contemporaneous controls, cited from earlier work
[2] = system: House Fly; experiment: Adult House Fly Assay (AhsF), feeding on compound-soaked dental wicks, 24 h mortality; set-up: species or system Musca domestica; conditions: 24 h, read-out: Potency (24 h EC50 μM)
Procedure: Adult Stable or House Fly Assay (ASF, AhsF). This assay is conducted essentially as described in White, W. H., S. M. Bauer, X. Zhao et al., Comparison of in vitro and in vivo ectoparasiticide activity of an experimental benzimidazole-carbamate with permethrin and amitraz, J. Med. Entomol. 42, 207-211 (2005); and White, W. H., C. M. McCoy, J. A. Meyer et al., Knockdown and mortality comparisons among spinosad-, imidacloprid-, and methomyl-containing baits against susceptible Musca domestica (Diptera: Muscidae) under laboratory conditions, J. Econ. Entomol. 100, 155-163 (2007).
Test material is formulated in DMSO at 10 mM. Doubling dilutions in like solvent are made to yield 10 testing levels. Materials are diluted in either bovine serum (stable flies) or 5% glucose solution (house flies) to obtain desired exposure concentrations from 200-0.39 μM. Approximately 3 ml of diluted test material is placed into a test tube (n=3 per test level) and a dental wick is used to absorb fluid. One dental wick is placed into a small weigh boat inside of a 100 mm Petri dish. Approximately 10 mixed-sex adult flies are anesthetized using carbon dioxide and counted into each dish. Dishes are incubated at 27° C. and 50-70% relative humidity. Flies recover from anesthesia and feed on compound-soaked dental wicks. After 24 h, live/dead flies are enumerated. Nonlinear regression is used to model dose-mortality relationship and obtain relative potency (LD50) data compared to contemporaneous controls (solvent-only or permethrin).

Spinosad
geometric mean percent flea reduction, Day 7 ([1]; Day 7): 100%
geometric mean percent flea reduction, Day 14 ([1]; Day 14): 99.6%
geometric mean percent flea reduction, Day 21 ([1]; Day 21): 100%
geometric mean percent flea reduction, Day 30 ([1]; Day 30): 97.8%
geometric mean percent flea reduction, Day 37 ([1]; Day 37): 91.1%
geometric mean percent flea reduction, Knockdown ([1]; Knockdown): 100%
EC50 ([2]; adult house flies, 5% glucose solution): 12 µM

N#Cc1nn(-c2c(Cl)cc(C(F)(F)F)cc2Cl)c(N)c1[S+]([O-])C(F)(F)F (centres unmarked) [Fipronil, reference compound]
EC50 ([2]; Musca domestica): 0.97 µM
